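Five concentrations, 48 hours, 96-well plates. Definition used: TGI = concentration required for complete inhibition of growth.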
Key:
Experiment in all cases: DTP human tumour cell line panel, 48 h
HCC-2998 colon = system: HCC-2998 colon
OVCAR-5 ovarian = system: OVCAR-5 ovarian
MDA-N = system: MDA-N
BT-549 breast = system: BT-549 breast
786-0 renal = system: 786-0 renal
COLO 205 colon = system: COLO 205 colon
CAKI-1 renal = system: CAKI-1 renal
SNB-19 CNS = system: SNB-19 CNS
SK-OV-3 ovarian = system: SK-OV-3 ovarian
SF-268 CNS = system: SF-268 CNS
NCI/ADR-RES ovarian = system: NCI/ADR-RES ovarian
MALME-3M melanoma = system: MALME-3M melanoma
KM12 colon = system: KM12 colon
LOX IMVI melanoma = system: LOX IMVI melanoma
DU-145 prostate = system: DU-145 prostate
EKVX NSCLC = system: EKVX NSCLC
MDA-MB-231 breast = system: MDA-MB-231 breast
NCI-H460 lung = system: NCI-H460 lung
UACC-62 melanoma = system: UACC-62 melanoma
HT29 colon = system: HT29 colon
NCI-H522 lung = system: NCI-H522 lung
HOP-62 NSCLC = system: HOP-62 NSCLC
OVCAR-8 ovarian = system: OVCAR-8 ovarian
M14 melanoma = system: M14 melanoma
MCF7 breast = system: MCF7 breast
MOLT-4 leukemia = system: MOLT-4 leukemia
OVCAR-4 ovarian = system: OVCAR-4 ovarian
NCI-H23 lung = system: NCI-H23 lung
SK-MEL-2 melanoma = system: SK-MEL-2 melanoma
PC-3 prostate = system: PC-3 prostate
RXF 393 renal = system: RXF 393 renal
HS 578T breast = system: HS 578T breast
HOP-92 NSCLC = system: HOP-92 NSCLC
UACC-257 melanoma = system: UACC-257 melanoma
IGROV1 ovarian = system: IGROV1 ovarian
CCRF-CEM leukemia = system: CCRF-CEM leukemia
U251 CNS = system: U251 CNS
ACHN renal = system: ACHN renal
HCT-116 colon = system: HCT-116 colon
K-562 leukemia = system: K-562 leukemia
TK-10 renal = system: TK-10 renal
A498 renal = system: A498 renal
HL-60(TB) leukemia = system: HL-60(TB) leukemia
UO-31 renal = system: UO-31 renal
SF-539 CNS = system: SF-539 CNS
T-47D breast = system: T-47D breast
SK-MEL-28 melanoma = system: SK-MEL-28 melanoma
RPMI-8226 leukemia = system: RPMI-8226 leukemia
SF-295 CNS = system: SF-295 CNS
SW-620 colon = system: SW-620 colon
SK-MEL-5 melanoma = system: SK-MEL-5 melanoma
SN12C renal = system: SN12C renal
A549 NSCLC = system: A549 NSCLC
MDA-MB-435 = system: MDA-MB-435
OVCAR-3 ovarian = system: OVCAR-3 ovarian
HCT-15 colon = system: HCT-15 colon
NCI-H226 lung = system: NCI-H226 lung
SR leukemia = system: SR leukemia
SNB-75 CNS = system: SNB-75 CNS

Question: `Cc1ccc(S(=O)(=O)NNC2(NS(=O)(=O)c3ccc(Cl)cc3)C(Cl)=C(Cl)C(=O)c3ccccc32)cc1` (configuration not stated) was tested. Which TGI (HCC-2998 colon) did it give?
Answer: 33.2 µM

Question: What about the TGI (OVCAR-5 ovarian) of the same compound?
Answer: 33.4 µM

Question: And the TGI (MDA-N)?
Answer: 32.2 µM

Question: What about the TGI (BT-549 breast) of the same compound?
Answer: 29.1 µM

Question: And the TGI (786-0 renal)?
Answer: 28.2 µM

Question: And the TGI (COLO 205 colon)?
Answer: 34.9 µM

Question: What about the TGI (CAKI-1 renal) of the same compound?
Answer: 32.4 µM

Question: What about the TGI (SNB-19 CNS) of the same compound?
Answer: 29.8 µM

Question: And the TGI (SK-OV-3 ovarian)?
Answer: 32.2 µM

Question: And the TGI (SF-268 CNS)?
Answer: 29.6 µM

Question: And the TGI (NCI/ADR-RES ovarian)?
Answer: 89.8 µM

Question: And the TGI (MALME-3M melanoma)?
Answer: 33.2 µM

Question: And the TGI (KM12 colon)?
Answer: 35.2 µM

Question: What about the TGI (LOX IMVI melanoma) of the same compound?
Answer: 65.1 µM

Question: And the TGI (DU-145 prostate)?
Answer: 33.2 µM

Question: And the TGI (EKVX NSCLC)?
Answer: 28.9 µM

Question: What about the TGI (MDA-MB-231 breast) of the same compound?
Answer: 44.9 µM

Question: What about the TGI (NCI-H460 lung) of the same compound?
Answer: 38.1 µM

Question: What about the TGI (UACC-62 melanoma) of the same compound?
Answer: 31 µM

Question: And the TGI (HT29 colon)?
Answer: 35.1 µM

Question: And the TGI (NCI-H522 lung)?
Answer: > 100 µM

Question: And the TGI (HOP-62 NSCLC)?
Answer: 54.8 µM

Question: And the TGI (OVCAR-8 ovarian)?
Answer: 87.8 µM

Question: What about the TGI (M14 melanoma) of the same compound?
Answer: 33 µM

Question: What about the TGI (MCF7 breast) of the same compound?
Answer: 37.3 µM

Question: What about the TGI (MOLT-4 leukemia) of the same compound?
Answer: > 100 µM

Question: And the TGI (OVCAR-4 ovarian)?
Answer: 30.1 µM

Question: And the TGI (NCI-H23 lung)?
Answer: 34.1 µM

Question: And the TGI (SK-MEL-2 melanoma)?
Answer: 50.6 µM

Question: What about the TGI (PC-3 prostate) of the same compound?
Answer: 33.5 µM

Question: And the TGI (RXF 393 renal)?
Answer: 31.1 µM

Question: And the TGI (HS 578T breast)?
Answer: 54.8 µM

Question: And the TGI (HOP-92 NSCLC)?
Answer: 41.6 µM

Question: What about the TGI (UACC-257 melanoma) of the same compound?
Answer: 32.6 µM

Question: What about the TGI (IGROV1 ovarian) of the same compound?
Answer: 34.3 µM

Question: What about the TGI (CCRF-CEM leukemia) of the same compound?
Answer: 63 µM

Question: What about the TGI (U251 CNS) of the same compound?
Answer: 57.3 µM

Question: And the TGI (ACHN renal)?
Answer: 29.7 µM

Question: What about the TGI (HCT-116 colon) of the same compound?
Answer: 32.4 µM

Question: And the TGI (K-562 leukemia)?
Answer: 36.1 µM

Question: What about the TGI (TK-10 renal) of the same compound?
Answer: 30.5 µM

Question: And the TGI (A498 renal)?
Answer: 36.7 µM

Question: What about the TGI (HL-60(TB) leukemia) of the same compound?
Answer: 37.4 µM

Question: What about the TGI (UO-31 renal) of the same compound?
Answer: 42.5 µM

Question: And the TGI (SF-539 CNS)?
Answer: 48.8 µM

Question: And the TGI (T-47D breast)?
Answer: > 100 µM

Question: What about the TGI (SK-MEL-28 melanoma) of the same compound?
Answer: 60.7 µM

Question: What about the TGI (RPMI-8226 leukemia) of the same compound?
Answer: 67 µM

Question: What about the TGI (SF-295 CNS) of the same compound?
Answer: 51.4 µM

Question: And the TGI (SW-620 colon)?
Answer: 76 µM

Question: What about the TGI (SK-MEL-5 melanoma) of the same compound?
Answer: 28.7 µM

Question: What about the TGI (SN12C renal) of the same compound?
Answer: 31.6 µM

Question: What about the TGI (A549 NSCLC) of the same compound?
Answer: 34.2 µM

Question: What about the TGI (MDA-MB-435) of the same compound?
Answer: 36 µM

Question: What about the TGI (OVCAR-3 ovarian) of the same compound?
Answer: 42.1 µM

Question: What about the TGI (HCT-15 colon) of the same compound?
Answer: 83.8 µM

Question: How did the TGI (HCC-2998 colon) turn out when `O=c1cc(N=Nc2ccc(O)cc2)[nH]c(=O)[nH]1` was run?
Answer: > 100 µM

Question: And the TGI (OVCAR-5 ovarian)?
Answer: > 100 µM

Question: And the TGI (MDA-N)?
Answer: > 100 µM

Question: What about the TGI (BT-549 breast) of the same compound?
Answer: > 100 µM

Question: What about the TGI (786-0 renal) of the same compound?
Answer: > 100 µM

Question: What about the TGI (COLO 205 colon) of the same compound?
Answer: > 100 µM

Question: What about the TGI (CAKI-1 renal) of the same compound?
Answer: > 100 µM

Question: What about the TGI (SNB-19 CNS) of the same compound?
Answer: > 100 µM

Question: What about the TGI (SK-OV-3 ovarian) of the same compound?
Answer: > 100 µM

Question: And the TGI (SF-268 CNS)?
Answer: > 100 µM

Question: What about the TGI (NCI/ADR-RES ovarian) of the same compound?
Answer: > 100 µM

Question: What about the TGI (MALME-3M melanoma) of the same compound?
Answer: 89.2 µM

Question: What about the TGI (KM12 colon) of the same compound?
Answer: > 100 µM

Question: What about the TGI (LOX IMVI melanoma) of the same compound?
Answer: > 100 µM

Question: What about the TGI (DU-145 prostate) of the same compound?
Answer: > 100 µM

Question: What about the TGI (EKVX NSCLC) of the same compound?
Answer: > 100 µM

Question: And the TGI (MDA-MB-231 breast)?
Answer: > 100 µM

Question: And the TGI (NCI-H460 lung)?
Answer: > 100 µM

Question: And the TGI (UACC-62 melanoma)?
Answer: > 100 µM

Question: And the TGI (HT29 colon)?
Answer: > 100 µM

Question: What about the TGI (NCI-H522 lung) of the same compound?
Answer: > 100 µM

Question: And the TGI (HOP-62 NSCLC)?
Answer: > 100 µM

Question: What about the TGI (OVCAR-8 ovarian) of the same compound?
Answer: > 100 µM

Question: And the TGI (M14 melanoma)?
Answer: > 100 µM

Question: And the TGI (MCF7 breast)?
Answer: > 100 µM

Question: And the TGI (MOLT-4 leukemia)?
Answer: > 100 µM

Question: What about the TGI (OVCAR-4 ovarian) of the same compound?
Answer: > 100 µM

Question: What about the TGI (NCI-H23 lung) of the same compound?
Answer: > 100 µM

Question: What about the TGI (SK-MEL-2 melanoma) of the same compound?
Answer: > 100 µM

Question: What about the TGI (PC-3 prostate) of the same compound?
Answer: > 100 µM

Question: And the TGI (NCI-H226 lung)?
Answer: > 100 µM

Question: And the TGI (RXF 393 renal)?
Answer: > 100 µM

Question: What about the TGI (HOP-92 NSCLC) of the same compound?
Answer: > 100 µM

Question: What about the TGI (SR leukemia) of the same compound?
Answer: > 100 µM

Question: And the TGI (UACC-257 melanoma)?
Answer: > 100 µM

Question: And the TGI (IGROV1 ovarian)?
Answer: > 100 µM

Question: And the TGI (U251 CNS)?
Answer: > 100 µM

Question: And the TGI (ACHN renal)?
Answer: > 100 µM

Question: What about the TGI (HCT-116 colon) of the same compound?
Answer: > 100 µM

Question: What about the TGI (K-562 leukemia) of the same compound?
Answer: > 100 µM

Question: What about the TGI (TK-10 renal) of the same compound?
Answer: > 100 µM

Question: And the TGI (A498 renal)?
Answer: > 100 µM

Question: And the TGI (HL-60(TB) leukemia)?
Answer: > 100 µM

Question: What about the TGI (SNB-75 CNS) of the same compound?
Answer: 89.9 µM

Question: And the TGI (UO-31 renal)?
Answer: > 100 µM

Question: What about the TGI (SF-539 CNS) of the same compound?
Answer: > 100 µM

Question: And the TGI (SK-MEL-28 melanoma)?
Answer: > 100 µM

Question: And the TGI (RPMI-8226 leukemia)?
Answer: > 100 µM

Question: What about the TGI (SF-295 CNS) of the same compound?
Answer: > 100 µM

Question: And the TGI (SW-620 colon)?
Answer: > 100 µM

Question: What about the TGI (SK-MEL-5 melanoma) of the same compound?
Answer: > 100 µM

Question: What about the TGI (SN12C renal) of the same compound?
Answer: > 100 µM

Question: And the TGI (A549 NSCLC)?
Answer: > 100 µM

Question: And the TGI (MDA-MB-435)?
Answer: > 100 µM

Question: What about the TGI (OVCAR-3 ovarian) of the same compound?
Answer: > 100 µM

Question: What about the TGI (HCT-15 colon) of the same compound?
Answer: > 100 µM
